Source: US20050267092A1, “Novel cephalosporin compounds and process for preparing the same” (priority 2002, published 2005)
Values after ≈ are worked out from the molar mass of the structure shown. Read-outs that look alike come from different tables or passages of the source.

Legend:
Assay in all cases: Minimum Inhibitory Concentration (MIC), agar dilution, standard strains
Format in all cases: cell-based
E. faecalis 2168 = details: for MIC: read-out: Minimum Inhibitory Concentration (MIC), E. faecalis 2168
Procedure: (§1) Minimum Inhibitory Concentration (MIC)
(§2) The effectiveness of the compound according to the present invention was determined by obtaining Minumum Inhibitory Concentration (MIC) of the compounds prepared by the above examples (Compounds I-1˜I-6, I-10) and Vancomycin, which is the known compound having a potent activity against gram-positive strains, as the control drug against the standard strains. Specifically, Minimum Inhibitory Concentration was obtained by diluting the test compounds according to a double dilution method, dispersing them in Mueller-Hinton agar medium, inoculating each of the test strains having 10^7 cfu (colony forming unit) per ml in an amount of 2 μl to the medium and then incubating them at 37° C. for 20 hours. From the results of Minimum Inhibitory Concentration test, it can be seen that the compound according to the present invention has a good activity against major pathogenic microorganisms, which cause hospital infection, including MRSA strains.

S. aureus 77 = details: for MIC: read-out: Minimum Inhibitory Concentration (MIC), S. aureus 77
Procedure: as §1, §2

S. aureus K311 = details: for MIC: Staphylococcus aureus, read-out: Minimum Inhibitory Concentration (MIC), S. aureus K311
Procedure: as §1, §2

S. aureus giorgio = details: for MIC: Staphylococcus aureus, read-out: Minimum Inhibitory Concentration (MIC), S. aureus giorgio
Procedure: as §1, §2

S. epidermidis Q033 = details: for MIC: Staphylococcus epidermidis, read-out: Minimum Inhibitory Concentration (MIC), S. epidermidis Q033
Procedure: as §1, §2

[1] = Enterococcus faecalis, 2168, Mueller-Hinton agar, double dilution, 37° C. for 20 hours
[2] = Staphylococcus aureus, 77, Mueller-Hinton agar, double dilution, 37° C. for 20 hours
[3] = K311, Mueller-Hinton agar, double dilution, 37° C. for 20 hours
[4] = Mueller-Hinton agar, double dilution, 37° C. for 20 hours
[5] = Q033, Mueller-Hinton agar, double dilution, 37° C. for 20 hours

MIC (E. faecalis 2168; [1]) [µg/mL] | MIC (S. aureus 77; [2]) [µg/mL] | MIC (S. aureus K311; [3]) [µg/mL] | MIC (S. aureus giorgio; [4]) [µg/mL] | MIC (S. epidermidis Q033; [5]) [µg/mL] | Structure (SMILES) | further results
0.5 (≈ 0.876 µM) | 0.5 (≈ 0.876 µM) | 0.5 (≈ 0.876 µM) | 0.13 (≈ 0.228 µM) | 0.063 (≈ 0.11 µM) | Nc1nc(O)cc(S/C=C/C2=C(C(=O)O)N3C(=O)[C@@H](NC(=O)C(=NO)c4nc(N)sc4Cl)[C@H]3SC2)n1 [Compound I-3, (6R,7R)-7-{[2-(2-amino-5-chloro-1,3-thiazol-4-yl)-2-(hydroxyimino)acetyl]amino}-3-{(E)-2-[(2-amino-6-hydroxy-4-pyrimidinyl)sulfanyl]ethenyl}-8-oxo-5-thia-1-azabicyclo[4.2.0]oct-2-ene-2-carboxylic acid] | 
1 (≈ 1.63 µM) | 1 (≈ 1.63 µM) | 2 (≈ 3.25 µM) | 0.25 (≈ 0.406 µM) | 0.13 (≈ 0.211 µM) | NCCSc1nccc(S/C=C/C2=C(C(=O)O)N3C(=O)[C@@H](NC(=O)C(=NO)c4nc(N)sc4Cl)[C@H]3SC2)n1 [Compound I-4, (6R,7R)-7-{[2-(2-amino-5-chloro-1,3-thiazol-4-yl)-2-(hydroxyimino)acetyl]amino}-3-{(E)-2-({2-[(2-aminoethyl)sulfanyl]-4-pyrimidinyl}sulfanyl)ethenyl}-8-oxo-5-thia-1-azabicyclo[4.2.0]oct-2-ene-2-carboxylic acid] | 
0.5 (≈ 0.84 µM) | 0.5 (≈ 0.84 µM) | 0.5 (≈ 0.84 µM) | 0.13 (≈ 0.218 µM) | 0.031 (≈ 0.0521 µM) | Nc1nc(C(=NO)C(=O)N[C@@H]2C(=O)N3C(C(=O)O)=C(/C=C/Sc4nc(N)c5cn[nH]c5n4)CS[C@H]23)c(Cl)s1 [Compound I-6, (6R,7R)-7-{[2-(2-amino-5-chloro-1,3-thiazol-4-yl)-2-(hydroxyimino)acetyl]amino}-3-{(E)-2-[(4-amino-1H-pyrazolo[3,4-d]pyrimidin-6-yl)sulfanyl]ethenyl}-8-oxo-5-thia-1-azabicyclo[4.2.0]oct-2-ene-2-carboxylic acid] | 
4 (≈ 6.27 µM) | 2 (≈ 3.13 µM) | 2 (≈ 3.13 µM) | 0.5 (≈ 0.784 µM) | 0.063 (≈ 0.0987 µM) | Nc1cc(S/C=C/C2=C(C(=O)O)N3C(=O)[C@@H](NC(=O)C(=NOC4CCCC4)c4nc(N)sc4Cl)[C@H]3SC2)nc(N)n1 [Compound I-10, (6R,7R)-7-({2-(2-amino-5-chloro-1,3-thiazol-4-yl)-2-[(cyclopentyloxy)imino]acetyl}amino)-3-{(E)-2-[(2,6-diamino-4-pyrimidinyl)sulfanyl]ethenyl}-8-oxo-5-thia-1-azabicyclo[4.2.0]oct-2-ene-2-carboxylic acid] | 

Second part, the compound before the results:

Structure (SMILES) | MIC (E. faecalis 2168; [1]) [µg/mL] | MIC (S. aureus 77; [2]) [µg/mL] | MIC (S. aureus K311; [3]) [µg/mL] | MIC (S. aureus giorgio; [4]) [µg/mL] | MIC (S. epidermidis Q033; [5]) [µg/mL] | further results
Nc1cc(S/C=C/C2=C(C(=O)O)N3C(=O)[C@@H](NC(=O)C(=NO)c4nc(N)sc4Cl)[C@H]3SC2)nc(O)n1 [Compound I-1, (6R,7R)-7-{[2-(2-amino-5-chloro-1,3-thiazol-4-yl)-2-(hydroxyimino)acetyl]amino}-3-{(E)-2-[(6-amino-2-hydroxy-4-pyrimidinyl)sulfanyl]ethenyl}-8-oxo-5-thia-1-azabicyclo[4.2.0]oct-2-ene-2-carboxylic acid] | 0.5 (≈ 0.876 µM) | 0.25 (≈ 0.438 µM) | 0.5 (≈ 0.876 µM) | 0.13 (≈ 0.228 µM) | 0.063 (≈ 0.11 µM) | 
Nc1cc(S/C=C/C2=C(C(=O)O)N3C(=O)[C@@H](NC(=O)C(=NO)c4nc(N)sc4Cl)[C@H]3SC2)nc(N)n1 [Compound I-2, (6R,7R)-7-{[2-(2-amino-5-chloro-1,3-thiazol-4-yl)-2-(hydroxyimino)acetyl]amino}-3-{(E)-2-[(2,6-diamino-4-pyrimidinyl)sulfanyl]ethenyl}-8-oxo-5-thia-1-azabicyclo[4.2.0]oct-2-ene-2-carboxylic acid] | 1 (≈ 1.75 µM) | 1 (≈ 1.75 µM) | 1 (≈ 1.75 µM) | 0.13 (≈ 0.228 µM) | 0.063 (≈ 0.111 µM) | 
Cc1cc(S/C=C/C2=C(C(=O)O)N3C(=O)[C@@H](NC(=O)C(=NO)c4nc(N)sc4Cl)[C@H]3SC2)nc(SCCN)n1 [Compound I-5] |  |  |  |  |  | Minimum Inhibitory Concentration (MIC), E. faecalis 2168 (E. faecalis 2168; [4]): 0.25 µg/mL; Minimum Inhibitory Concentration (MIC), S. aureus 77 (S. aureus 77; [4]): 1 µg/mL; Minimum Inhibitory Concentration (MIC), S. aureus K311 (S. aureus K311; [4]): 2 µg/mL; Minimum Inhibitory Concentration (MIC), S. aureus giorgio (S. aureus giorgio; [4]): 0.25 µg/mL; Minimum Inhibitory Concentration (MIC), S. epidermidis Q033 (S. epidermidis Q033; [4]): 0.13 µg/mL
CN[C@H](CC(C)C)C(=O)N[C@H]1C(=O)N[C@@H](CC(N)=O)C(=O)N[C@H]2C(=O)N[C@H]3C(=O)N[C@H](C(=O)N[C@H](C(=O)O)c4cc(O)cc(O)c4-c4cc3ccc4O)[C@H](O)c3ccc(c(Cl)c3)Oc3cc2cc(c3O[C@@H]2O[C@H](CO)[C@@H](O)[C@H](O)[C@H]2O[C@H]2C[C@](C)(N)[C@H](O)[C@H](C)O2)Oc2ccc(cc2Cl)[C@H]1O [Vancomycin, reference compound] |  |  |  |  |  | MIC (E. faecalis 2168; Enterococcus faecalis, 2168, 20 h): > 64 µg/mL; MIC (S. aureus 77; Staphylococcus aureus, 77, 20 h): 1 µg/mL (≈ 0.69 µM); MIC (S. aureus K311; K311, 20 h): 2 µg/mL (≈ 1.38 µM); MIC (S. aureus giorgio; 20 h): 1 µg/mL (≈ 0.69 µM); MIC (S. epidermidis Q033; Q033, 20 h): 1 µg/mL (≈ 0.69 µM)
